The target of the assay is T1, CXCR7 (Homo sapiens, UniProt P25106).
T1 construct: host or cells: CHO-K1 (PathHunter CHO-K1 CXCR7 b-arrestin cell line, stably transfected)
T1 sequence (P25106 whole entry): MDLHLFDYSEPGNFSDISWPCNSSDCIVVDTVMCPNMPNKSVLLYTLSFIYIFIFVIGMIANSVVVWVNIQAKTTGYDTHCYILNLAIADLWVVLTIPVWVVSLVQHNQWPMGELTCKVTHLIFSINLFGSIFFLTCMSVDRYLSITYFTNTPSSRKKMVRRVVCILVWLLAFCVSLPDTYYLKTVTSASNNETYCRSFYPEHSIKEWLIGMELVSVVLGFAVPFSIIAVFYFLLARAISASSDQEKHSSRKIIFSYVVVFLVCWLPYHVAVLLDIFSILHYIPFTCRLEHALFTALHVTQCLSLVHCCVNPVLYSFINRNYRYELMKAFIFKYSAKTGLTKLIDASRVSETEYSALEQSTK
T1 sequence (P32121 whole entry partner): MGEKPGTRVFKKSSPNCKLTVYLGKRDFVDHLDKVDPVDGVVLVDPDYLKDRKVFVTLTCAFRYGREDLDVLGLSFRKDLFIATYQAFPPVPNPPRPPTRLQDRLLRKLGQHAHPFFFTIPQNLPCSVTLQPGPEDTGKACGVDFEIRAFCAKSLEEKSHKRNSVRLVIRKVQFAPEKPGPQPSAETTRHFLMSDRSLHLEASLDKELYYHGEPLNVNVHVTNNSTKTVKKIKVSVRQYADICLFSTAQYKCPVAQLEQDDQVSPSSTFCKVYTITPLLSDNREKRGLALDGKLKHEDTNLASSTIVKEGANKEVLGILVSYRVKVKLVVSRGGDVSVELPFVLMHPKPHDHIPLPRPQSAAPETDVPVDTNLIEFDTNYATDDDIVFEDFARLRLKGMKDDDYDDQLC
The experiment in a line: PathHunter CHO-K1 CXCR7 b-arrestin recruitment assay (CXCR7 agonistic activity). The assay is classed as cell-based. To be noted: PathHunter CHO-K1 CXCR7 b-arrestin cell line. As for the experimental part: The CXCl12 receptor and CXCR7 agonistic activities of the compounds of formula (I) are determined in accordance with the following experimental method.
The assay is using the PathHunter™ CHO-K1 CXCR7 b-arrestin cell line from DiscoverX. The system is based on the Enzyme Fragment Complementation Technology. Two complementing fragments of the b-galactosidase enzyme are expressed within stably transfected cells. The larger portion of b-gal, termed EA for Enzyme Acceptor, is fused to the C-terminus of b-arrestin 2. The smaller fragment, termed ProLink™ tag, is fused to CXCR7 at the C-terminus. Upon activation, b-arrestin is recruited which forces the interaction of ProLink and EA, allowing complementation of the two fragments of b-gal and the formation of a functional enzyme which is capable of hydrolysing the substrate and generating a chemiluminescent signal.
CHO-K1 CXCR7 b-arrestin cells are detached from culture dishes with a cell dissociation buffer (Invitrogen, #13151-014) and collected in growing medium (F12 HAMS 90% (v/v)/FCS 10% (v/v), Penicillin/streptomycin 1% (v/v)). 5000 cells per well (in 20 μl) are seeded in a 384 well plate (white-walled, clear bottom; BD Falcon #353274). The plate is incubated at 37° C./5% CO2 for 24 hours. Medium is then replaced by 20 μl OPTIMEM (Invitrogen #31985) for 3 to 4 hours. Test compounds are dissolved at 10 mM in DMSO and serially diluted in DMSO to 200× of the final concentration for dose response curves. Compounds are then diluted 1:33.3 in HBSS1×. 5 μl/well of HBSS1×/20 mM HEPES/0.2% BSA are added to the assay plate followed by addition of 5 μl/well of diluted compounds. CXCL12 (Peprotech #300-28A) may be used as a reference agonist. The plate is incubated for 90 minutes at 37° C. 12 μl of detection reagent (Path Hunter Detection Kit, DiscoveRx, #93-0001) is transferred to the assay plate and to the plate is incubated for 1 hour at room temperature. Luminescent signal is read in a microplate reader (FLUOstar Optima, bmg). The calculated EC50 values may fluctuate depending on the daily cellular assay performance. Fluctuations of this kind are known to those skilled in the art. Average EC50 values from several measurements are given as geometric mean values.
For orientation: Activated receptors often draw arrestin, which recruitment assays turn into a signal.
What is called EC50 is the concentration giving half of the maximal effect. A low value points to greater potency. With `CN(C)CCN(Cc1ncccc1C(F)(F)F)C(=O)CNc1cccc2c1CN(CC1CC1)CC2` [compound 566, 2-(2-Cyclopropylmethyl-1,2,3,4-tetrahydro-isoquinolin-8-ylamino)-N-(2-dimethylamino-ethyl)-N-(3-trifluoromethyl-pyridin-2-ylmethyl)-acetamide], the EC50 stood at 3 nM. On to `CC(C)C(=O)N1CCc2c(cccc2NCC(=O)N(CCN(C)C)Cc2ccccc2)C1` [compound 115], for which a half-maximal response (EC50) required 54 nM. This EC50 lies about 18-fold higher than the previous one. The molecule `CCC(=O)N1CCc2c(cccc2NCC(=O)N(CCNC)Cc2ncccc2C(F)(F)F)C1` [compound 409, N-(2-Methylamino-ethyl)-2-(2-propionyl-1,2,3,4-tetrahydro-isoquinolin-5-ylamino)-N-(3-trifluoromethyl-pyridin-2-ylmethyl)-acetamide] yielded an EC50 of 8 nM. To `Cc1ccccc1CCN(CCN(C)C)C(=O)CNc1cccc2c1CCN(CC1CC1)C2` [Example 40, 2-(2-Cyclopropylmethyl-1,2,3,4-tetrahydro-isoquinolin-5-ylamino)-N-(2-dimethylamino-ethyl)-N-(2-o-tolyl-ethyl)-acetamide] belongs 44 nM; to `CCC(=O)N1CCc2c(cccc2NCC(=O)N(CCC(C)C)Cc2ccccc2)C1` [Example 12, N-Benzyl-N-(3-methyl-butyl)-2-(2-propionyl-1,2,3,4-tetrahydro-isoquinolin-5-ylamino)-acetamide], 194 nM. To `CN(C)CCN(Cc1ccccc1)C(=O)CNc1cccc2c1CCN(C(=O)CC1CCCCC1)C2` [compound 129] belongs 449 nM; to `C#CCOC(=O)N1CCc2c(cccc2NCC(=O)N(CCNC)Cc2ncccc2C(F)(F)F)C1` [compound 421, 5-({[(2-Methylamino-ethyl)-(3-trifluoromethyl-pyridin-2-ylmethyl)-carbamoyl]-methyl}-amino)-3,4-dihydro-1H-isoquinoline-2-carboxylic acid prop-2-ynyl ester], 29 nM; to `CN(C)CCN(Cc1ccccc1OC(F)(F)F)C(=O)CNc1cccc2c1CCN(CC1CC1)C2` [Example 227, 2-(2-Cyclopropylmethyl-1,2,3,4-tetrahydro-isoquinolin-5-ylamino)-N-(2-dimethylamino-ethyl)-N-(2-trifluoromethoxy-benzyl)-acetamide], 6 nM. To `CN(C)CCN(Cc1ccccc1C(F)(F)F)C(=O)CNc1cccc2c1CN(C(N)=O)CC2` [compound 562] belongs 100 nM.

`CS(=O)(=O)NCCN(Cc1ccccc1C(F)(F)F)C(=O)CNc1cccc2c1CCN(CC1CC1)C2` [Example 230, 2-(2-Cyclopropylmethyl-1,2,3,4-tetrahydro-isoquinolin-5-ylamino)-N-(2-methanesulfonylamino-ethyl)-N-(2-trifluoromethyl-benzyl)-acetamide] yielded a half-maximal effective concentration (EC50) of 81 nM. This EC50 and that of the molecule before are within 1.5-fold of each other. Turning to `CN(C)CCN(Cc1ccccc1)C(=O)COc1cccc2c1CCN(CC1CC1)C2` [compound 166, N-Benzyl-2-(2-cyclopropylmethyl-1,2,3,4-tetrahydro-isoquinolin-5-yloxy)-N-(2-dimethylamino-ethyl)-acetamide], a half-maximal effect (EC50) was put at 6 nM. This EC50 lies about 14-fold lower than the previous one. On to `CN(C)CCN(Cc1ncccn1)C(=O)CNc1cccc2c1CCN(CC1CC1)C2` [Example 260, 2-(2-Cyclopropylmethyl-1,2,3,4-tetrahydro-isoquinolin-5-ylamino)-N-(2-dimethylamino-ethyl)-N-pyrimidin-2-ylmethyl-acetamide], for which the 50% effective concentration (EC50) was found to be 125 nM. This EC50 is about 21-fold higher than that of the molecule before. To `CN1CCC(N(Cc2ccccc2C(F)(F)F)C(=O)CCc2cccc3c2CCN(C(=O)OC(C)(C)C)C3)CC1` [Example 100, 5-{2-[(1-Methyl-piperidin-4-yl)-(2-trifluoromethyl-benzyl)-carbamoyl]-ethyl}-3,4-dihydro-1H-isoquinoline-2-carboxylic acid tert-butyl ester] belongs 376 nM. For `CCN1CCc2cccc(NCC(=O)N(CCC#N)Cc3ccccc3C(F)(F)F)c2C1` [compound 516], the EC50 turned out to be 181 nM.

The molecule `CCC(=O)N1CCc2c(cccc2NCC(=O)N(CCN(C)C)Cc2cccc(Cl)c2)C1` [Example 18, N-(3-Chloro-benzyl)-N-(2-dimethylamino-ethyl)-2-(2-propionyl-1,2,3,4-tetrahydro-isoquinolin-5-ylamino)-acetamide] yielded an EC50 of 61 nM. This EC50 is about 3-fold lower than that of the molecule before. For `CC(C)OC(=O)N1CCc2c(cccc2NCC(=O)N(CCN(C)C)Cc2ccccc2)C1` [compound 121] the value was 101 nM. Consider `COCCN1CCc2c(cccc2NCC(=O)N(Cc2ccccc2C(F)(F)F)CC(C)(C)O)C1` [Example 301, N-(2-Hydroxy-2-methyl-propyl)-2-[2-(2-methoxy-ethyl)-1,2,3,4-tetrahydro-isoquinolin-5-ylamino]-N-(2-trifluoromethyl-benzyl)-acetamide], for which the EC50 came out at 208 nM. For the molecule `CC(C)C(=O)N1CCc2cccc(NCC(=O)N(CCN(C)C)Cc3ccccc3)c2C1` [compound 191], the response was half-maximal at 59 nM (EC50). For `CN(C)CCN(Cc1ccccc1)C(=O)CNc1cccc2c1CN(C)C2` [Example 208, N-Benzyl-N-(2-dimethylamino-ethyl)-2-(2-methyl-2,3-dihydro-1H-isoindol-4-ylamino)-acetamide] the value was 248 nM. For `CCN1CCc2cccc(NCC(=O)N(CCN3CCOCC3)Cc3ccccc3C(F)(F)F)c2C1` [compound 510] the value was 109 nM; for `CCN1CCc2cccc(NCC(=O)N(CCN(C)C)Cc3cncc(Cl)c3)c2C1` [compound 533], 359 nM; for `CCN1CCc2c(CCC(=O)N(Cc3ccccc3C(F)(F)F)C3CCN(C)CC3)cccc2C1` [compound 159], 72 nM.

`COC(=O)N1CCc2c(cccc2OCC(=O)N(CCN(C)C)Cc2ccccc2)C1` [Example 167, 5-{[Benzyl-(2-dimethylamino-ethyl)-carbamoyl]-methoxy}-3,4-dihydro-1H-isoquinoline-2-carboxylic acid methyl ester] showed a 50% effective concentration (EC50) of 39 nM. Against the preceding molecule, the EC50 is about 1.8-fold lower. For `CN(C)CCN(Cc1ccccc1C(F)(F)F)C(=O)CNc1cccc2c1CN(C(=O)N1CCCC1)CC2` [compound 561, N-(2-Dimethylamino-ethyl)-2-[2-(pyrrolidine-1-carbonyl)-1,2,3,4-tetrahydro-isoquinolin-8-ylamino]-N-(2-trifluoromethyl-benzyl)-acetamide] the value was 7 nM; for `O=C(CNc1cccc2c1CCN(CC1CC1)C2)N(CCN1CCCC1)Cc1ccc(F)cc1Cl` [Example 50, N-(2-Chloro-4-fluoro-benzyl)-2-(2-cyclopropylmethyl-1,2,3,4-tetrahydro-isoquinolin-5-ylamino)-N-(2-pyrrolidin-1-yl-ethyl)-acetamide], 6 nM; for `CN(C)CCN(Cc1ccc(F)cc1C(F)(F)F)C(=O)CNc1cccc2c1CCN(CC1CC1)C2` [Example 54, 2-(2-Cyclopropylmethyl-1,2,3,4-tetrahydro-isoquinolin-5-ylamino)-N-(2-dimethylamino-ethyl)-N-(4-fluoro-2-trifluoromethyl-benzyl)-acetamide], 7 nM. For `CCN1CCc2cccc(NCC(=O)N(CCN(C)C(=O)OC(C)(C)C)Cc3ccccc3)c2C1` [compound 493] the value was 249 nM; for `CN(C)CCN(Cc1ccccc1C(F)(F)F)C(=O)CNc1cccc2c1CCN(C(=O)c1ccco1)C2` [Example 572, N-(2-Dimethylamino-ethyl)-2-[2-(furan-2-carbonyl)-1,2,3,4-tetrahydro-isoquinolin-5-ylamino]-N-(2-trifluoromethyl-benzyl)-acetamide], 5 nM. For `COCCN1CCc2c(CCC(=O)N(CCN(C)C)Cc3ncccc3Cl)cccc2C1` [Example 346, N-(3-Chloro-pyridin-2-ylmethyl)-N-(2-dimethylamino-ethyl)-3-[2-(2-methoxy-ethyl)-1,2,3,4-tetrahydro-isoquinolin-5-yl]-propionamide] the value was 73 nM; for `O=C(CNc1cccc2c1CCN(CC1CC1)C2)N(CCN1CCNC1=O)Cc1ccccc1C(F)(F)F` [Example 79, 2-(2-Cyclopropylmethyl-1,2,3,4-tetrahydro-isoquinolin-5-ylamino)-N-[2-(2-oxo-imidazolidin-1-yl)-ethyl]-N-(2-trifluoromethyl-benzyl)-acetamide], 135 nM. On to `CC(C)(C)CCN(Cc1ccccc1C(F)(F)F)C(=O)CNc1cccc2c1CCN(CC1CC1)C2` [Example 274, 2-(2-Cyclopropylmethyl-1,2,3,4-tetrahydro-isoquinolin-5-ylamino)-N-(3,3-dimethyl-butyl)-N-(2-trifluoromethyl-benzyl)-acetamide], for which the EC50 turned out to be 179 nM.
